Measurements reported in US20210308270A1, “SYSTEMS AND METHODS FOR INTRACELLULAR DELIVERY VIA NON-CHARGED SEQUENCE-DEFINED CELL-PENETRATING OLIGOMERS” (priority 2018, published 2021).

Legend:
[1] = test system: Listeria monocytogenes DP-L1942; assay: In vitro intracellular infection assay in J774 cells; type: cell-based
Method: In vitro Intracellular Infection Assay: 100,000 cells/well J774 cells in DMEM supplemented with 10% FBS without pen-strep, referred to as normal growth media, were plated in a 24-well plate and incubated for 20-24 hrs before use. Listeria monocytogenes DP-L1942 strain was taken from an exponentially growing culture (OD600 of ˜0.5) and washed with 1×PBS pH 7.4. Macrophages were infected with 200,000 bacteria in normal growth media to achieve an initial infection of approximately two bacteria per cell (MOI=2). The cells were washed twice with PBS at 30 mins after infection and supplemented with normal growth media. At 1-hr post infection, gentamicin (50 μg/ml) was added to eliminate all extracellular bacteria. The cells were then washed twice with PBS after 30 mins of incubation and supplemented with normal growth media. At 2-hr post infection, 30 μM of CPOT-vancomycin conjugates were added to the infected cells and incubated for 4 hrs. At the end of the incubation period, macrophages were washed twice with PBS, and the cells were lysed with 0.1% Triton-X in PBS. The cell lysate was diluted 10× in Brain Heart Infusion (BHI) broth and plated in a 96-well plate. The plate was incubated at 37° C. with agitation. The growth curve kinetics were generated from the absorbance measurements at 600 nm taken every 5 mins for 14 hrs.

HeLa cells [2] = assay: Cellular uptake of fluorescein conjugates by flow cytometry, HeLa; type: cell-based, human
Method: (§1) After the incubation, cells were washed with PBS and incubated with 200 μL of Trypsin EDTA at 37° C. for 3-5 mins. 1 mL of DMEM with 10% FBS was then added to quench the trypsin. […] Results were analyzed by FlowJo software.
Dose-dependent uptake: The standard uptake procedure was followed, except that cells were treated with the labeled oligoTEAs at 0.5 μM to 5 μM. All other conditions remained the same.
Uptake kinetics study: The standard uptake procedure was followed, except that cells were treated with fluorescein-PEO^2-B at 2.5 μM for 15-120 mins (minutes). After the incubation, the plate was cells were washed with PBS and incubated with 200 μL of Trypsin EDTA at 37° C. for 3-5 mins. All other conditions remained the same.
(§2) Mechanism of uptake: The standard uptake procedure was followed with the following changes for each mechanistic condition. Readings were taken on a FACSAria™ Fusion flow cytometry analyzer (Becton Dickinson).
Uptake with and without serum: Prior to treatment, cells were washed with PBS. Cells were then incubated with fluorescein conjugates in either DMEM with 10% FBS or Opti-MEM at 37° C. for 1 hr. Following treatment, cells were washed with PBS before addition of Trypsin EDTA.
Pretreatment with heparin sulfate: Prior to treatment, fluorescein conjugates were incubated with different concentrations of heparin sulfate and DMEM with 10% FBS in Eppendorf® tubes for 30 mins at 37° C. Cells were washed with PBS, and incubated with the treatment solutions at 37° C. for 1 hr. Following treatment, cells were washed with PBS once more before addition of Trypsin EDTA.
(§3) Temperature dependence: Prior to treatment, fluorescein conjugates were incubated with DMEM with 10% FBS in Eppendorf® tubes for 30 mins at 37° C. or 4° C. Cells were washed with warm (37° C.) or cool (4° C.) PBS for 5 mins. Pre-warmed or pre-cooled fluorescein conjugate solution was then added, and cells were incubated at 37° C. or refrigerated at 4° C. for 1 hr. Following treatment, cells were washed with PBS before addition of Trypsin EDTA.
(§4) Uptake with and without NaN3 and 2-deoxy-D-glucose (DOG): Prior to treatment, cells were washed with PBS. Cells were then incubated with 10 mM NaN3 and 25 mM DOG in DMEM with 10% FBS at 37° C. for 1 hr. Fluorescein conjugates were added, and cells were incubated at 37° C. for another hour. Following treatment, cells were washed with PBS before addition of Trypsin EDTA.
as §4, with “chlorpromazine (CPM):” for “NaN3 and 2-deoxy-D-glucose (DOG):”, “5 μg/mL (or 15.7 μM) CPM” for “10 mM NaN3 and 25 mM DOG”, “EDTA. […]” for “EDTA.”

SKOV-3 cells = assay: Cellular uptake of fluorescein conjugates by flow cytometry, SKOV-3; type: cell-based, human
Method: as §1, §2, §3, §4
(§5) Uptake with and without chlorpromazine (CPM): Prior to treatment, cells were washed with PBS. […]

HEK293 cells = assay: Cellular uptake of fluorescein conjugates by flow cytometry, HEK293; type: cell-based, human
Method: as §1, §2, §3, §4, §5

HeLa cells [3] = assay: Live-cell confocal microscopy and time-lapse imaging; type: cell-based, human
Method: Live-Cell confocal microscopy: 70,000 HeLa cells/chamber were plated in a 4-chamber 35-mm glass-bottom microwell dish ([…]) and cultured at 37° C. for 20-24 hrs. […] For co-localization experiments, cells were incubated with fluorescein conjugates along with 150 nM Transferrin-Alexa Fluor 647, or 150 μM Dextran-Alexa Fluor 647 for 1 hr at 37° C. Cells were gently washed 3 times with PBS, and FluoroBrite DMEM Media supplemented with 10% FBS was added to each chamber for imaging. Images were taken on a Zeiss LSM880 live-cell confocal/multiphoton inverted microscope, equipped with a 63× oil objective, with 488-nm and 633-nm lasers enabled for fluorescein and Transferrin-Alexa Fluor 647/Dextran-Alexa Fluor 647, respectively. Images were processed using Fiji software. Time-lapse live-cell imaging: 70,000 HeLa cells/chamber were plated in a 4-chamber 35-mm glass-bottom microwell dish ([…]) and cultured at 37° C. for 20-24 hrs. […] Images were taken on a Zeiss LSM880 live-cell confocal/multiphoton inverted microscope, equipped with a 63× oil objective, with 488-nm laser enabled for fluorescein. Images were processed using Fiji software.

J774 cells = assay: Uptake of fluorescein cargo by oligoTEAs, flow cytometry, J774; type: cell-based; settings: 5 μM, 1 hr
Method: (§6) After the incubation, cells were washed with PBS. […] Results were analyzed by FlowJo software.

MC-3T3-E1 cells = assay: Uptake of fluorescein cargo by oligoTEAs, flow cytometry, MC-3T3-E1; type: cell-based; settings: 5 μM, 1 hr
Method: as §6

Compound: O=C(O)c1cn(C2CC2)c2cc(N3CCNCC3)c(F)cc2c1=O [Ciprofloxacin]
- inhibition at 30 µM ([1]; Listeria monocytogenes, DPL1942, J774, 4 h, read-out: inhibition of bacteria growth): > 80%

Compound: CN[C@H](CC(C)C)C(=O)N[C@H]1C(=O)N[C@@H](CC(N)=O)C(=O)N[C@H]2C(=O)N[C@H]3C(=O)N[C@H](C(=O)N[C@H](C(=O)O)c4cc(O)cc(O)c4-c4cc3ccc4O)[C@H](O)c3ccc(c(Cl)c3)Oc3cc2cc(c3O[C@@H]2O[C@H](CO)[C@@H](O)[C@H](O)[C@H]2O[C@H]2C[C@](C)(N)[C@H](O)[C@H](C)O2)Oc2ccc(cc2Cl)[C@H]1O [vancomycin]
- inhibition of bacteria growth ([1]; 30 μM, 4 hrs treatment, 14th hour of growth curve): little to no effect on bacteria growth

Compound: Ac-RRRRRRRRRK-Am (Ac-RRRRRRRRRK-NH2) [R9, widely used cationic CPP, purchased from GenScript]
- temperature dependence of uptake, 4° C. vs 37° C. (HeLa cells [2]): weaker dependence on temperature
- increase of uptake in the absence of serum (HeLa cells [2]; Opti-MEM vs DMEM with 10% FBS): 2 fold
- effect of endocytosis inhibitors on uptake (HeLa cells [2]; chlorpromazine (clathrin), filipin III (caveolae), cytochalasin D (macropinocytosis)): dependence on clathrin in HeLa cells and macropinocytosis in both HEK293 and HeLa cells
- decrease of uptake in the presence of heparin sulfate (HeLa cells [2]; conjugate pretreated with heparin sulfate 30 mins): 6 fold
- temperature dependence of uptake, 4° C. vs 37° C. (SKOV-3 cells): weaker dependence on temperature
- temperature dependence of uptake, 4° C. vs 37° C. (HEK293 cells): weaker dependence on temperature
- effect of endocytosis inhibitors on uptake (HEK293 cells; chlorpromazine, filipin III, cytochalasin D): macropinocytosis in both HEK293 and HeLa cells
- subcellular distribution (HeLa cells [3]; 5 μM fluorescein conjugate, 1 hr, 63×): primarily as punctate spots
- trend of uptake of fluorescein cargo (J774 cells): R9 (PEG-Bu)4>(BDT-PEG)4>(BDT-PEG4)4˜(PEG-PEG)4
- trend of uptake of fluorescein cargo (MC-3T3-E1 cells): R9 (PEG-Bu)4>(BDT-PEG)4>(BDT-PEG4)4˜(PEG-PEG)4

Compound: fluorescein acid
- internalization in time-lapse live cell imaging (HeLa cells [3]; 2.5 μM, trypan blue present, 60 mins): no internalization
